In US20240383886A1, “Protein Tyrosine Phosphatase Degraders and Methods of Use Thereof” (CALICO LIFE SCIENCES LLC, priority 2019, published 2024):

Tests used:
PTPN2 [1] = target: T1, PTPN2 (Homo sapiens, UniProt P17706); test: HiBiT-Degradation 293T.109 PTPN2 (Nano-Glo HiBiT Lytic Assay); assay type: cell-based; details: 293T.109 (HiBiT-PTPN2) cells, 24.0 hours
T1 construct: expressed in transfected cells; host or cells: 293T (293T.109 HiBiT-PTPN2 line; parental 293T WT from ATCC)
T1 sequence (P17706 1-415): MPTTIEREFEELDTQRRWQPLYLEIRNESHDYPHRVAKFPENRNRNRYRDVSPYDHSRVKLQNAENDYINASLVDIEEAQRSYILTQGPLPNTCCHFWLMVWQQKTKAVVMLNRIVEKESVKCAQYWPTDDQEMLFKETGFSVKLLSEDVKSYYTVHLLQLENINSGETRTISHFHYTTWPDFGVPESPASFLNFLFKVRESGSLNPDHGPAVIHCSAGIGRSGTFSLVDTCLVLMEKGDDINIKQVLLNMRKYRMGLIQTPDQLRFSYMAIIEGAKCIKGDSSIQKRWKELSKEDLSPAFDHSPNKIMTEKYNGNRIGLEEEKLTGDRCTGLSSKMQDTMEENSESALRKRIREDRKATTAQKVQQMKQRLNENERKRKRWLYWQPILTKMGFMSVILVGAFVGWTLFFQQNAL
From the text: Dulbecco's modified Eagle medium (DMEM) without phenol red and fetal bovine serum (FBS) were purchased from Gibco (Grand Island, NY, USA). Nano-Glo® HiBIT Lytic Assay System was purchased from Promega (Madison, WI, USA). 293T.109 (HiBiT-PTPN2) cell line was generated by ectopically expressing PTPN2 with N-terminal HiBiT fusion tag in 293T WT cell line purchased from ATCC (Manassas, VA, USA). Cell culture flasks and 384-well microplates were acquired from VWR (Radnor, PA, USA).
PTPN2 degradation was determined based on quantification of luminescent signal using Nano-Glo® HiBIT Lytic Assay kit. Test compounds were added to the 384-well plate from a top concentration of 10 μM with 11 points, half log titration in duplicates. 293T.109 cells were added into 384-well plates at a cell density of 5000 cells per well. The plates were kept at 37° C. with 5% CO2 for 24 hours. The cells treated in the absence of the test compound were the negative control and the cells without Nano-Glo® HiBiT Lytic reagent were the positive control. After 24-hour incubation, Nano-Glo® HiBIT Lytic Assay reagents were added to the cells. Luminescence was acquired on EnVision™ Multilabel Reader (PerkinElmer, Santa Clara, CA, USA).

PTPN2 [2] = test: HiBiT-Degradation B16F10.4 PTPN2; assay type: cell-based; details: B16F10.4 cells, 24.0 hours

DC50 (PTPN2 [1]) [nM] | DC50 (PTPN2 [2]) [nM] | SMILES
50 to 200 | ≥ 1000 | O=C(CN1CCC(c2ccc(NC3CCC(=O)NC3=O)cc2F)CC1)NCCOc1ccc2cc(O)c(N3CC(=O)NS3(=O)=O)c(F)c2c1 (stereo not shown) [Example 10, 2-[4-[4-[(2,6-dioxo-3-piperidyl)amino]-2-fluoro-phenyl]-1-piperidyl]-N-[2-[[8-fluoro-6-hydroxy-7-(1,1,4-trioxo-1,2,5-thiadiazolidin-2-yl)-2-naphthyl]oxy]ethyl]acetamide]
200 to 1000 | 200 to 1000 | O=C(C=Cc1ccc2cc(O)c(N3CC(=O)NS3(=O)=O)c(F)c2c1)NC1CCN(C(=O)COc2cccc3c2CN(C2CCC(=O)NC2=O)C3=O)CC1 (stereo not shown) [Example 11, 3-(7-(1,1-dioxido-4-oxo-1,2,5-thiadiazolidin-2-yl)-8-fluoro-6-hydroxynaphthalen-2-yl)-N-(1-(2-((2-(2,6-dioxopiperidin-3-yl)-1-oxoisoindolin-4-yl)oxy)acetyl)piperidin-4-yl)acrylamide]
200 to 1000 | ≥ 1000 | O=C1CCC(N2C(=O)c3cccc(NCc4cnn(CCC(=O)Nc5ccc6c(F)c(N7CC(=O)NS7(=O)=O)c(O)cc6c5)c4)c3C2=O)C(=O)N1 (stereo not shown) [Example 12, 3-[4-[[[2-(2,6-dioxo-3-piperidyl)-1,3-dioxo-isoindolin-4-yl]amino]methyl]pyrazol-1-yl]-N-[5-fluoro-7-hydroxy-6-(1,1,4-trioxo-1,2,5-thiadiazolidin-2-yl)-2-naphthyl]propanamide]
50 to 200 | 200 to 1000 | O=C1CCC(N2Cc3c(NCc4cnn(CCC(=O)Nc5ccc6c(F)c(N7CC(=O)NS7(=O)=O)c(O)cc6c5)c4)cccc3C2=O)C(=O)N1 (stereo not shown) [Example 13, 3-[4-[[[2-(2,6-dioxo-3-piperidyl)-1-oxo-isoindolin-4-yl]amino]methyl]pyrazol-1-yl]-N-[5-fluoro-7-hydroxy-6-(1,1,4-trioxo-1,2,5-thiadiazolidin-2-yl)-2-naphthyl]propanamide]
200 to 1000 | 200 to 1000 | O=C1CCC(N2C(=O)c3ccc(NCc4cn(CCC(=O)Nc5ccc6c(F)c(N7CC(=O)NS7(=O)=O)c(O)cc6c5)nn4)cc3C2=O)C(=O)N1 (stereo not shown) [Example 14, N-(6-(1,1-dioxido-4-oxo-1,2,5-thiadiazolidin-2-yl)-5-fluoro-7-hydroxynaphthalen-2-yl)-3-(4-(((2-(2,6-dioxopiperidin-3-yl)-1,3-dioxoisoindolin-5-yl)amino)methyl)-1H-1,2,3-triazol-1-yl)propanamide]
200 to 1000 | 200 to 1000 | O=C1CCC(N2Cc3cc(NCc4cn(CCC(=O)Nc5ccc6c(F)c(N7CC(=O)NS7(=O)=O)c(O)cc6c5)nn4)ccc3C2=O)C(=O)N1 (stereo not shown) [Example 15, 3-[4-[[[2-(2,6-dioxo-3-piperidyl)-1-oxo-isoindolin-5-yl]amino]methyl]triazol-1-yl]-N-[5-fluoro-7-hydroxy-6-(1,1,4-trioxo-1,2,5-thiadiazolidin-2-yl)-2-naphthyl]propanamide]
50 to 200 | 200 to 1000 | O=C1CCC(N2Cc3cc(NCc4cnn(CCC(=O)Nc5ccc6c(F)c(N7CC(=O)NS7(=O)=O)c(O)cc6c5)c4)ccc3C2=O)C(=O)N1 (stereo not shown) [Example 16, 3-[4-[[[2-(2,6-dioxo-3-piperidyl)-1-oxo-isoindolin-5-yl]amino]methyl]pyrazol-1-yl]-N-[5-fluoro-7-hydroxy-6-(1,1,4-trioxo-1,2,5-thiadiazolidin-2-yl)-2-naphthyl]propanamide]
50 to 200 | ≥ 1000 | O=C1CCC(N2C(=O)c3cccc(NCc4cn(C5CN(C(=O)Nc6ccc7c(F)c(N8CC(=O)NS8(=O)=O)c(O)cc7c6)C5)nn4)c3C2=O)C(=O)N1 (stereo not shown) [Example 17, 3-[4-[[[2-(2,6-dioxo-3-piperidyl)-1,3-dioxo-isoindolin-4-yl]amino]methyl]triazol-1-yl]-N-[5-fluoro-7-hydroxy-6-(1,1,4-trioxo-1,2,5-thiadiazolidin-2-yl)-2-naphthyl]azetidine-1-carboxamide]
